Assay [1] has as its system Rat aortic smooth muscle cells (RSMC). The assay can be described thus: cGMP level measurements in rat aortic smooth muscle cells stimulated with ANF. It is filed as cell-based. The following applies: compound 30 minutes at 37° C., then ANF (100 nM) 10 minutes, dose giving half of the stimulation at saturating concentrations. As to the method: Rat aortic smooth muscle cells (RSMC), prepared according to Chamley et al., Cell Tissue Res., 177, 503-522 (1977), were used between the 10th and 25th passage at confluence in 24-well culture dishes. Culture media was aspirated and replaced with PBS (0.5 ml) containing the compound tested at the appropriate concentration. After 30 minutes at 37° C., particulates guanylate cyclase was stimulated by addition of ANF (100 nM) for 10 minutes. At the end of incubation, the medium was withdrawn, and two extractions were performed by addition of 65% ethanol (0.25 ml). The two ethanolic extracts were pooled and evaporated until dryness, using a Speed-vac system. CGMP was measured after acetylation by scintillation proximity immunoassay (AMERSHAM). The EC50 values are expressed as the dose-giving half of the stimulation at saturating concentrations.

Assay [2] deals with conscious spontaneously hypertensive rats (SHRs). The assay can be described thus: Hypotensive effect in conscious spontaneously hypertensive rats. The class given is in vivo, rat. The following applies: 5 mg/kg orally in 5% DMF and 95% olive oil, AUC from 0 to 5 hours. On the procedure: The hypotensive effects of compounds according to the invention as identified in Table 2 were studied in conscious spontaneously hypertensive rats (SHRs). The compounds were administered orally at a dose of 5 mg/kg in a mixture of 5% DMF and 95% olive oil. Blood pressure was measured from a catheter inserted in the carotid artery and recorded for five hours after administration. The results are expressed as Area Under the Curve (AUC from 0 to 5 hours, mmhg.hour) of the fall in blood pressure over time.

Another assay has as its target human recombinant PDE5 (Homo sapiens, UniProt O76074). The assay can be described thus: Inhibitory effect on cGMP-PDE (one-step PDE5 assay). The following applies: 0.15 μM 8-[H^3 ]-cGMP, 2% DMSO, 30 minutes. It is filed as biochemical. On the procedure:
CGMP-PDE activity of compounds of the present invention was measured using a one-step assay adapted from Wells et al., Biochim. Biophys. Acta, 384, 430 (1975). The reaction medium contained 50 mM Tris-HCl, pH 7.5, 5 mM magnesium acetate, […] 51-Nucleotidase, 1 mM EGTA, and 0.15 μM 8-[H^3 ]-cGMP. The enzyme used was a human recombinant PDE5 (ICOS Corp., Bothell, Wash.).
Compounds of the invention were dissolved in DMSO finally present at 2% in the assay.

A further assay relates to MED. The following applies: clinical; oral, sublingual, intraurethral, i.c. or topical; cited from earlier work.

Results on 27 compounds are retold here after patent US6043252A, “Carboline derivatives” (Icos Corporation, priority 1998, dated 2000).

pEC50, pIC50: −log10 of the molar value. No end group written: not given here.

The pEC50 is the EC50 on a negative log10 scale, so that one unit is a factor of ten. In the case of `CN(C)C[C@@H](O)COc1ccc(/C=C/C(=O)N2CCc3c([nH]c4ccccc34)C2c2ccc3c(c2)CCO3)cc1` (stereo partly drawn) [Example 177, (E)-(R)-1-[1-(2,3-Dihydrobenzofuran-5-yl)-1,3,4,9-tetrahydro-β-carbolin-2-yl]-3-(4-(3-dimethylamino-2-hydroxypropoxy)phenyl)propene-1-one], in assay [1], the negative-log EC50 (pEC50) was greater than 6.00. Besides, in assay [2], the “SHR AUC PO (Area Under the Curve of the fall in blood pressure over time)” value is recorded as 100 mmHG · h. Broadly, the pIC50 is the negative decadic logarithm of the IC50, by convention in mol/L. For `Nc1ccc(/C=C/C(=O)N2CCc3c([nH]c4ccccc34)C2c2ccc3c(c2)OCO3)cc1` (stereo not drawn) [Example 25, (E)-1-[1-(3,4-Methylenedioxyphenyl)-1,3,4,9-tetrahydro-β-carbolin-2-yl]-3-(4-aminophenyl)propene-1-one], the pIC50 on human recombinant PDE5 was 7.14. In assay [1], this compound showed a negative logarithm of the EC50 (pEC50) of 6.52. The “SHR AUC PO (Area Under the Curve of the fall in blood pressure over time)” value in assay [2] was 72 mmHG · h. Regarding `CNCc1ccc(/C=C/C(=O)N2CCc3c([nH]c4ccccc34)[C@H]2c2ccc3c(c2)CCO3)cc1` [Example 184], the pEC50 in assay [1] is 5.52. For the compound “vasoactive intestinal polypeptide (VIP): vasoactive intestinal polypeptide (VIP) (HSDAVFTDNYTRLRKQMAVKKYLNSILN; ends and bridges not checked; UniProt P01282 125-152, looked up)”, in the assay with MED, the “efficacy in MED” value is on record as “active i.c”. For `O=C(O)c1ccc(/C=C/C(=O)N2CCc3c([nH]c4ccccc34)C2c2ccc3c(c2)OCO3)cc1` (stereo not drawn) [Example 31, (E)-4-[3-Oxo-3-[1-(3,4-methylenedioxyphenyl)-1,3,4,9-tetrahydro-β-carbolin-2-yl]-propenyl]benzoic acid], at human recombinant PDE5, the negative logarithm of the IC50 (pIC50) is 8.40. Also, the pEC50 in assay [1] was 6.00. Also, the “SHR AUC PO (Area Under the Curve of the fall in blood pressure over time)” value in assay [2] is reported as 86 mmHG · h. `CN(C)CCOc1ccc(/C=C/C(=O)N2CCc3c([nH]c4ccccc34)C2c2ccc3c(c2)CCO3)cc1` (stereo not shown) [Example 122]: in assay [2], the “SHR AUC PO (Area Under the Curve of the fall in blood pressure over time)” value was determined as 76 mmHG · h. Consider `CC(COc1ccc(/C=C/C(=O)N2CCc3c([nH]c4ccccc34)[C@H]2c2ccc3c(c2)CCO3)cc1)N(C)C` (stereo partly shown) [Example 165], for which the negative logarithm of the EC50 (pEC50) in assay [1] was greater than 6.00. With `O=C(/C=C/c1ccc(OCCN2CCCC2)cc1)N1CCc2c([nH]c3ccccc23)C1c1ccc2c(c1)CCO2` (stereo not shown) [Example 142], in assay [1], the negative logarithm of the EC50 (pEC50) was 5.82. In addition, the “SHR AUC PO (Area Under the Curve of the fall in blood pressure over time)” value in assay [2] came to 74 mmHG · h. On to `CN(C)CCOc1ccc(/C=C/C(=O)N2CCc3c([nH]c4ccccc34)C2c2ccc3c(c2)OCO3)cc1` (stereo not drawn) [Example 61, (E)-1-[1-(3,4-Methylenedioxyphenyl)-1,3,4,9-tetrahydro-β-carbolin-2-yl]-3-[4-(2-dimethylaminoethoxy)phenyl]propene-1-one], for which, at human recombinant PDE5, the pIC50 was 7.70. The compound also gave a pEC50 in assay [1] of 5.74. Moreover, the “SHR AUC PO (Area Under the Curve of the fall in blood pressure over time)” value in assay [2] is given as 95 mmHG · h. Take `CN(C)CCOc1ccc(/C=C/C(=O)N2CCc3c([nH]c4ccccc34)[C@H]2c2ccc3c(c2)CCO3)cc1` [Example 140]: in assay [1], the pEC50 is 7.00. In assay [2], the “SHR AUC PO (Area Under the Curve of the fall in blood pressure over time)” value was determined as 105 mmHG · h. Consider `CC(C)C(=O)Nc1ccc(/C=C/C(=O)N2CCc3c([nH]c4ccccc34)C2c2ccc3c(c2)OCO3)cc1` (stereo not drawn) [Example 55, (E)-N-[4-[3-Oxo-3-(1-(3,4-methylenedioxyphenyl)-1,3,4,9-tetrahydro-β-carbolin-2-yl)propenyl]phenyl]isobutyramide], for which the pIC50 at human recombinant PDE5 was 7.40. Besides, the negative-log EC50 (pEC50) in assay [1] is 6.40. Also, the “SHR AUC PO (Area Under the Curve of the fall in blood pressure over time)” value in assay [2] turned out to be 97 mmHG · h. For the compound `COC(=O)c1ccc(/C=C/C(=O)N2CCc3c([nH]c4ccccc34)C2c2ccc3c(c2)OCO3)cc1` (stereo not drawn) [Example 28, (E)-4-[3-Oxo-3-[1-(3,4-methylenedioxyphenyl)-1,3,4,9-tetrahydro-β-carbolin-2-yl]-propenyl]benzoic Acid, Methyl Ester], the pIC50 at human recombinant PDE5 was 7.26. In assay [1], the pEC50 was 6.52. Further, the “SHR AUC PO (Area Under the Curve of the fall in blood pressure over time)” value in assay [2] is given as 114 mmHG · h.

Turning to `CCCCC[C@H](O)/C=C/[C@H]1[C@H](O)CC(=O)[C@@H]1CCCCCCC(=O)O` [alprostadil], the “efficacy in MED” value with MED is “not effective in all patients”. In assay [1], `CNCCOc1ccc(/C=C/C(=O)N2CCc3c([nH]c4ccccc34)[C@H]2c2ccc3c(c2)CCO3)cc1` [Example 191, (E)-(R)-1-[1-(2,3-Dihydrobenzofuran-5-yl)-1,3,4,9-tetrahydro-carbolin-2-yl]-3-[4-(2-methylaminoethoxy)phenyl]propene-1-one] had a negative logarithm of the EC50 (pEC50) greater than 6.00. Also, in assay [2], the “SHR AUC PO (Area Under the Curve of the fall in blood pressure over time)” value was determined as 84 mmHG · h. In the case of `CN1CCc2cccc3c2[C@H]1Cc1ccc(O)c(O)c1-3` [apomorphine], the “efficacy in MED” value in the assay on MED is “neither compound has demonstrated efficacy across a broad range of subjects”. In the case of `CCN(CC)CCOc1ccc(/C=C/C(=O)N2CCc3c([nH]c4ccccc34)[C@H]2c2ccc3c(c2)CCO3)cc1` [Example 164], the pEC50 in assay [1] was 5.82. For the compound `CN1CCC[C@H]1COc1ccc(/C=C/C(=O)N2CCc3c([nH]c4ccccc34)[C@H]2c2ccc3c(c2)CCO3)cc1` [Example 156], the pEC50 in assay [1] is greater than 6.00. Further, the “SHR AUC PO (Area Under the Curve of the fall in blood pressure over time)” value in assay [2] worked out at 57 mmHG · h. For the compound `O=C(/C=C/c1ccc([N+](=O)[O-])cc1)N1CCc2c([nH]c3ccccc23)C1c1ccc2c(c1)OCO2` (stereo not drawn) [Example 26, (E)-1-[1-(3,4-Methylenedioxyphenyl)-1,3,4,9-tetrahydro-β-carbolin-2-yl]-3-(4-nitrophenyl)propene-1-one], in assay [2], the “SHR AUC PO (Area Under the Curve of the fall in blood pressure over time)” value is 102 mmHG · h. In the case of `CN(C)CCNc1ccc(/C=C/C(=O)N2CCc3c([nH]c4ccccc34)[C@H]2c2ccc3c(c2)CCO3)cc1` [Example 180], the pEC50 in assay [1] is 5.46. `CC(=O)Nc1ccc(/C=C/C(=O)N2CCc3c([nH]c4ccccc34)C2c2ccc3c(c2)OCO3)cc1` (stereo not drawn) [Example 14, (E)-N-[4-[3-Oxo-3-(1-(3,4-methylenedioxyphenyl)-1,3,4,9-tetrahydro-β-carbolin-2-yl)propenyl]phenyl]acetamide]: the negative logarithm of the IC50 (pIC50) at human recombinant PDE5 was 8.30. The same compound gave a pEC50 in assay [1] of 6.35. Moreover, the “SHR AUC PO (Area Under the Curve of the fall in blood pressure over time)” value in assay [2] is 128 mmHG · h.

For the compound `CCN(C)CCOc1ccc(/C=C/C(=O)N2CCc3c([nH]c4ccccc34)[C@H]2c2ccc3c(c2)CCO3)cc1` [Example 175, (E)-(R)-1-[1-(2,3-Dihydrobenzofuran-5-yl)-1,3,4,9-tetrahydro-β-carbolin-2-yl]-3-(4-(2-(ethylmethylamino)ethoxy)phenyl)propene-1-one], in assay [2], the “SHR AUC PO (Area Under the Curve of the fall in blood pressure over time)” value is on record as 52 mmHG · h.

In turn, `O=C(/C=C/c1ccc(OCCN2CCCCC2)cc1)N1CCc2c([nH]c3ccccc23)[C@H]1c1ccc2c(c1)CCO2` [Example 188, (E)-(R)-1-[1-(2,3-Dihydrobenzofuran-5-yl)-1,3,4,9-tetrahydro-β-carbolin-2-yl]-3-(4-(2-piperidin-1-ylethoxy)phenyl)propene-1-one] showed a negative-log EC50 (pEC50) in assay [1] greater than 6.00. The “SHR AUC PO (Area Under the Curve of the fall in blood pressure over time)” value in assay [2] turned out to be 86 mmHG · h. For `CN1CCN(c2ccc(/C=C/C(=O)N3CCc4c([nH]c5ccccc45)[C@H]3c3ccc4c(c3)CCO4)cc2)CC1` [Example 183], the pEC50 in assay [1] is 5.70. As for `O=C(/C=C/c1ccccc1)N1CCc2c([nH]c3ccccc23)C1c1ccc2c(c1)CCO2` (stereo not drawn) [Example 112, (E)-1-[1-(2,3-Dihydrobenzofuran-5-yl)-1,3,4,9-tetrahydro-β-carbolin-2-yl]-3-phenylpropene-1-one], the “SHR AUC PO (Area Under the Curve of the fall in blood pressure over time)” value in assay [2] was 71 mmHG · h. On to `O=C(/C=C/c1ccc(O)cc1)N1CCc2c([nH]c3ccccc23)[C@H]1c1ccc2c(c1)CCO2` [Example 182, (E)-(R)-1-[1-(2,3-Dihydrobenzofuran-5-yl)-1,3,4,9-tetrahydro-β-carbolin-2-yl]-3-(4-hydroxyphenyl)propene-1-one], for which the pEC50 in assay [1] is greater than 6.00. In turn, `NCCOc1ccc(/C=C/C(=O)N2CCc3c([nH]c4ccccc34)[C@H]2c2ccc3c(c2)CCO3)cc1` [Example 181, (E)-(R)-1-[1-(2,3-Dihydrobenzofuran-5-yl)-1,3,4,9-tetrahydro-β-carbolin-2-yl]-3-(4-(2-aminoethoxy)phenyl)propene-1-one] gave a pEC50 in assay [1] of 5.70. Also, in assay [2], the “SHR AUC PO (Area Under the Curve of the fall in blood pressure over time)” value was 77 mmHG · h.

Take `Cc1ccc(N(CC2=NCCN2)c2cccc(O)c2)cc1` [phentolamine]: the “efficacy in MED” value with MED is “neither compound has demonstrated efficacy across a broad range of subjects”.
